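1) Cells in 96-well plates. 2) Compound, 48 h, 5 concentrations. 3) Linear interpolation between surrounding doses. 4) Unreached endpoint = highest concentration. TGI is the concentration that stops growth completely.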
Assays:
Test in all cases: NCI-60 cell line screen, 48 h
SK-MEL-28 melanoma = tested on: SK-MEL-28 melanoma
HT29 colon = tested on: HT29 colon
HCC-2998 colon = tested on: HCC-2998 colon
LOX IMVI melanoma = tested on: LOX IMVI melanoma
SF-295 CNS = tested on: SF-295 CNS
SK-OV-3 ovarian = tested on: SK-OV-3 ovarian
HL-60(TB) leukemia = tested on: HL-60(TB) leukemia
COLO 205 colon = tested on: COLO 205 colon
K-562 leukemia = tested on: K-562 leukemia
MCF7 breast = tested on: MCF7 breast
SN12C renal = tested on: SN12C renal
M14 melanoma = tested on: M14 melanoma
OVCAR-5 ovarian = tested on: OVCAR-5 ovarian
MOLT-4 leukemia = tested on: MOLT-4 leukemia
SNB-75 CNS = tested on: SNB-75 CNS
CAKI-1 renal = tested on: CAKI-1 renal
UACC-257 melanoma = tested on: UACC-257 melanoma
HOP-92 NSCLC = tested on: HOP-92 NSCLC
SF-539 CNS = tested on: SF-539 CNS
SNB-19 CNS = tested on: SNB-19 CNS
BT-549 breast = tested on: BT-549 breast
MDA-MB-435 = tested on: MDA-MB-435
SK-MEL-2 melanoma = tested on: SK-MEL-2 melanoma
UO-31 renal = tested on: UO-31 renal
RPMI-8226 leukemia = tested on: RPMI-8226 leukemia
SF-268 CNS = tested on: SF-268 CNS
IGROV1 ovarian = tested on: IGROV1 ovarian
NCI-H23 lung = tested on: NCI-H23 lung
T-47D breast = tested on: T-47D breast
TK-10 renal = tested on: TK-10 renal
A498 renal = tested on: A498 renal
NCI-H226 lung = tested on: NCI-H226 lung
SR leukemia = tested on: SR leukemia
UACC-62 melanoma = tested on: UACC-62 melanoma
NCI/ADR-RES ovarian = tested on: NCI/ADR-RES ovarian
A549 NSCLC = tested on: A549 NSCLC
NCI-H460 lung = tested on: NCI-H460 lung
PC-3 prostate = tested on: PC-3 prostate
KM12 colon = tested on: KM12 colon
U251 CNS = tested on: U251 CNS
HS 578T breast = tested on: HS 578T breast
MDA-MB-231 breast = tested on: MDA-MB-231 breast
NCI-H522 lung = tested on: NCI-H522 lung
HCT-116 colon = tested on: HCT-116 colon
786-0 renal = tested on: 786-0 renal
RXF 393 renal = tested on: RXF 393 renal
SW-620 colon = tested on: SW-620 colon
HCT-15 colon = tested on: HCT-15 colon
ACHN renal = tested on: ACHN renal
MALME-3M melanoma = tested on: MALME-3M melanoma
HOP-62 NSCLC = tested on: HOP-62 NSCLC
OVCAR-8 ovarian = tested on: OVCAR-8 ovarian
SK-MEL-5 melanoma = tested on: SK-MEL-5 melanoma
OVCAR-3 ovarian = tested on: OVCAR-3 ovarian
EKVX NSCLC = tested on: EKVX NSCLC
CCRF-CEM leukemia = tested on: CCRF-CEM leukemia
DU-145 prostate = tested on: DU-145 prostate
MDA-N = tested on: MDA-N
OVCAR-4 ovarian = tested on: OVCAR-4 ovarian

SMILES: CCOC(NC(=O)CC)(C(F)(F)F)C(F)(F)F
- TGI (SK-MEL-28 melanoma): > 100 µM
- TGI (HT29 colon): > 100 µM
- TGI (HCC-2998 colon): > 100 µM
- TGI (LOX IMVI melanoma): > 100 µM
- TGI (SF-295 CNS): > 100 µM
- TGI (SK-OV-3 ovarian): > 100 µM
- TGI (HL-60(TB) leukemia): > 100 µM
- TGI (COLO 205 colon): > 100 µM
- TGI (K-562 leukemia): > 100 µM
- TGI (MCF7 breast): > 100 µM
- TGI (SN12C renal): > 100 µM
- TGI (M14 melanoma): > 100 µM
- TGI (OVCAR-5 ovarian): > 100 µM
- TGI (MOLT-4 leukemia): > 100 µM
- TGI (SNB-75 CNS): > 100 µM
- TGI (CAKI-1 renal): > 100 µM
- TGI (UACC-257 melanoma): > 100 µM
- TGI (HOP-92 NSCLC): > 100 µM
- TGI (SF-539 CNS): > 100 µM
- TGI (SNB-19 CNS): > 100 µM
- TGI (BT-549 breast): > 100 µM
- TGI (MDA-MB-435): > 100 µM
- TGI (SK-MEL-2 melanoma): > 100 µM
- TGI (UO-31 renal): > 100 µM
- TGI (RPMI-8226 leukemia): > 100 µM
- TGI (SF-268 CNS): > 100 µM
- TGI (IGROV1 ovarian): > 100 µM
- TGI (NCI-H23 lung): > 100 µM
- TGI (T-47D breast): > 100 µM
- TGI (TK-10 renal): > 100 µM
- TGI (A498 renal): > 100 µM
- TGI (NCI-H226 lung): > 100 µM
- TGI (SR leukemia): > 100 µM
- TGI (UACC-62 melanoma): > 100 µM
- TGI (NCI/ADR-RES ovarian): > 100 µM
- TGI (A549 NSCLC): > 100 µM
- TGI (NCI-H460 lung): > 100 µM
- TGI (PC-3 prostate): > 100 µM
- TGI (KM12 colon): > 100 µM
- TGI (U251 CNS): > 100 µM
- TGI (HS 578T breast): > 100 µM
- TGI (MDA-MB-231 breast): > 100 µM
- TGI (NCI-H522 lung): > 100 µM
- TGI (HCT-116 colon): > 100 µM
- TGI (786-0 renal): > 100 µM
- TGI (RXF 393 renal): 61.2 µM
- TGI (SW-620 colon): > 100 µM
- TGI (HCT-15 colon): > 100 µM
- TGI (ACHN renal): > 100 µM
- TGI (MALME-3M melanoma): > 100 µM
- TGI (HOP-62 NSCLC): > 100 µM
- TGI (OVCAR-8 ovarian): > 100 µM
- TGI (SK-MEL-5 melanoma): > 100 µM
- TGI (OVCAR-3 ovarian): > 100 µM
- TGI (EKVX NSCLC): > 100 µM
- TGI (CCRF-CEM leukemia): > 100 µM
- TGI (DU-145 prostate): > 100 µM
- TGI (MDA-N): > 100 µM

SMILES: CC(=O)N/N=C1/NN(C(C)=O)C2(S1)C(=O)Nc1ccc(C)cc12 (centres undefined)
- TGI (SK-MEL-28 melanoma): > 100 µM
- TGI (HT29 colon): > 100 µM
- TGI (HCC-2998 colon): > 100 µM
- TGI (LOX IMVI melanoma): > 100 µM
- TGI (SF-295 CNS): > 100 µM
- TGI (HL-60(TB) leukemia): > 100 µM
- TGI (COLO 205 colon): > 100 µM
- TGI (K-562 leukemia): > 100 µM
- TGI (MCF7 breast): > 100 µM
- TGI (SN12C renal): > 100 µM
- TGI (M14 melanoma): > 100 µM
- TGI (OVCAR-5 ovarian): > 100 µM
- TGI (MOLT-4 leukemia): > 100 µM
- TGI (SNB-75 CNS): > 100 µM
- TGI (CAKI-1 renal): > 100 µM
- TGI (UACC-257 melanoma): > 100 µM
- TGI (HOP-92 NSCLC): > 100 µM
- TGI (SF-539 CNS): > 100 µM
- TGI (SNB-19 CNS): > 100 µM
- TGI (BT-549 breast): > 100 µM
- TGI (MDA-MB-435): > 100 µM
- TGI (UO-31 renal): > 100 µM
- TGI (RPMI-8226 leukemia): > 100 µM
- TGI (SF-268 CNS): > 100 µM
- TGI (IGROV1 ovarian): > 100 µM
- TGI (NCI-H23 lung): > 100 µM
- TGI (T-47D breast): 70.9 µM
- TGI (TK-10 renal): > 100 µM
- TGI (A498 renal): > 100 µM
- TGI (NCI-H226 lung): > 100 µM
- TGI (OVCAR-4 ovarian): > 100 µM
- TGI (SR leukemia): > 100 µM
- TGI (UACC-62 melanoma): > 100 µM
- TGI (NCI/ADR-RES ovarian): > 100 µM
- TGI (A549 NSCLC): > 100 µM
- TGI (NCI-H460 lung): > 100 µM
- TGI (PC-3 prostate): > 100 µM
- TGI (KM12 colon): > 100 µM
- TGI (U251 CNS): > 100 µM
- TGI (HS 578T breast): > 100 µM
- TGI (MDA-MB-231 breast): > 100 µM
- TGI (NCI-H522 lung): > 100 µM
- TGI (HCT-116 colon): > 100 µM
- TGI (786-0 renal): > 100 µM
- TGI (RXF 393 renal): > 100 µM
- TGI (HCT-15 colon): > 100 µM
- TGI (ACHN renal): > 100 µM
- TGI (MALME-3M melanoma): > 100 µM
- TGI (HOP-62 NSCLC): > 100 µM
- TGI (OVCAR-8 ovarian): > 100 µM
- TGI (SK-MEL-5 melanoma): > 100 µM
- TGI (OVCAR-3 ovarian): > 100 µM
- TGI (EKVX NSCLC): > 100 µM
- TGI (CCRF-CEM leukemia): > 100 µM
- TGI (DU-145 prostate): > 100 µM
- TGI (MDA-N): > 100 µM

Source: PubChem BioAssay (NCI)
